# Test results reported in publication PMC9530963, “A cathelicidin antimicrobial peptide from Hydrophis cyanocinctus inhibits Zika virus infection by downregulating expression of a viral entry factor” (The Journal of Biological Chemistry, 2022).
# Tests used:
# [1] = system: type I IFN signaling; assay: Type I IFN signaling in U251 cells (qPCR, Western blot); type: cell-based, Homo sapiens
# Protocol: Figure 7 Hc-CATH-induced AXL downregulation reverses the negative regulation of AXL on type I IFN signaling.A, schematic diagram of B and C. B, effect of Hc-CATH on type I IFN signaling. U251 cells were cultured in the presence of Hc-CATH (2.5 μM) or same volume of PBS (solvent of peptide). After culture at 37 °C for 24 h, type I IFN genes were tested by qPCR. C, effect of Hc-CATH on type I IFN signaling upon ZIKV challenge. U251 cells were cultured in the presence of Hc-CATH (2.5 μM) or PBS (solvent of peptide) at 37 °C for 2 h. Cells were washed with PBS and incubated with ZIKV (MOI = 1) at 37 °C for 2 h. Cell were washed with PBS again and cultured in DMEM containing 2% FBS at 37 °C for 24 h. Type I IFN genes were tested by qPCR. D, schematic diagram of E–G. E and F, U251 cells were cultured in the presence of Hc-CATH (2.5 μM) or PBS (solvent of peptide) at 37 °C for 12 h. Cells were stimulated with SeV (MOI = 1) at 37 °C for 12 h. Type I IFN gene was tested by qPCR (E). […] DMEM, Dulbecco’s modified Eagle’s medium; FBS, fetal bovine serum; IFN, interferon; MOI, multiplicity of infection; qPCR, quantitative PCR; SeV, Sendai virus; ZIKV, Zika virus.
# U251 cells were cultured with Hc-CATH (2.5 μM) or PBS at 37 °C for 24 h, and cells were collected for testing type I IFN signaling gene and protein by qPCR and WB, respectively. Upon ZIKV challenge, U251 cells were incubated with Hc-CATH (2.5 μM) or PBS at 37 °C for 2 h and washed three times with PBS. Cells were then incubated with ZIKV (MOI = 1) for 2 h and washed with PBS. After culture for 24 h, type I IFN signaling genes were tested by qPCR. Upon SeV challenge, U251 cells were incubated with Hc-CATH (2.5 μM) or PBS at 37 °C for 12 h, cells were then stimulated with SeV or same volume of PBS for 12 h, and type I IFN signaling gene and protein were tested by qPCR and WB, respectively.
# [2] = system: PGE2; assay: PGE2 production in A549 cells (ELISA); type: cell-based, Homo sapiens; conditions: 24 h, cell supernatant
# Protocol: Figure 6 Hc-CATH downregulates AXL via inhibiting COX-2/PGE2/AC/PKA pathway.A, effect of Hc-CATH on COX-2 protein level. A549 cells were incubated with Hc-CATH (1.25, 2.5, or 5 μM) or PBS (solvent of Hc-CATH) at 37 °C for 24 h, COX-2 protein level was examined by Western blot (upper panel) and analyzed by ImageJ (lower panel). B, effect of Hc-CATH on the enzymatic activity of COX-2. Hc-CATH (1.25, 2.5, 5, and 10 μM) or PBS was incubated with COX-2. After incubation at 37 °C for 10 min, the enzymatic activity of COX-2 was detected by enzyme activity inhibitor screening kit. Celecoxib (COX-2 inhibitor, 100 nM) was used as positive control. C, effect of Hc-CATH on PGE2 production. A549 cells were incubated with Hc-CATH (5 μM) at 37 °C. After incubation for 24 h, the level of PGE2 in the cell supernatant was detected by ELISA. D and E, effect of AC (D) and PKA (E) on Hc-CATH-induced AXL downregulation. A549 cells were incubated with forskolin (FSK, agonist of AC, 10 μM) or H89 (inhibitor of PKA, 5 μM) at 37 °C. After incubation for 1 h, the culture media were removed, cells were washed three times with PBS, and fresh culture media were added to cells in the presence of Hc-CATH (5 μM). After incubation for 24 h, AXL protein level was examined by Western blot (upper panel of D and E) and analyzed by ImageJ (lower panel of D and E). ns, not significant, ∗∗p < 0.01, and ∗∗∗p < 0.001. […]
sequence,measurement,setting,value
"KFFKRLLKSVRRAVKKFRKKPRLIGLSTLL [Hc-CATH, cathelicidin antimicrobial peptide identified from the sea snake Hydrophis cyanocinctus]",levels of type I IFN genes in response to ZIKV infection,"[1]; 2.5 μM 2 h, then ZIKV MOI = 1, 24 h, qPCR",upregulated the levels of type I IFN genes
same,IFN-β expression in response to SeV stimulation,"[1]; 2.5 μM 12 h, then SeV MOI = 1 12 h, qPCR, compared with PBS",significantly increased IFN-β expression
same,levels of type I IFN genes,"[1]; 2.5 μM, 24 h, qPCR",significantly increased the levels of type I IFN genes
same,phosphorylation of TANK-binding kinase 1 and IRF3,"[1]; 2.5 μM, Western blot, relative to PBS",increased the phosphorylation of TANK-binding kinase 1 and IRF3
same,synthesis of PGE2,[2],significantly reduced the synthesis of PGE2
